The source of these data is paper PMC10817170, “Effect of an NHE3 inhibitor in combination with an NPT2b inhibitor on gastrointestinal phosphate absorption in Rodent models” (PLOS ONE, 2024).

Several values for one entry are separate records, joined by “and”; a condition that tells them apart may be missing. Identical values can stand only once.

For the test, the target named is T1, Human NHE3 (Homo sapiens, UniProt P48764).
T1 construct: myc
T1 sequence (P48764 26-834): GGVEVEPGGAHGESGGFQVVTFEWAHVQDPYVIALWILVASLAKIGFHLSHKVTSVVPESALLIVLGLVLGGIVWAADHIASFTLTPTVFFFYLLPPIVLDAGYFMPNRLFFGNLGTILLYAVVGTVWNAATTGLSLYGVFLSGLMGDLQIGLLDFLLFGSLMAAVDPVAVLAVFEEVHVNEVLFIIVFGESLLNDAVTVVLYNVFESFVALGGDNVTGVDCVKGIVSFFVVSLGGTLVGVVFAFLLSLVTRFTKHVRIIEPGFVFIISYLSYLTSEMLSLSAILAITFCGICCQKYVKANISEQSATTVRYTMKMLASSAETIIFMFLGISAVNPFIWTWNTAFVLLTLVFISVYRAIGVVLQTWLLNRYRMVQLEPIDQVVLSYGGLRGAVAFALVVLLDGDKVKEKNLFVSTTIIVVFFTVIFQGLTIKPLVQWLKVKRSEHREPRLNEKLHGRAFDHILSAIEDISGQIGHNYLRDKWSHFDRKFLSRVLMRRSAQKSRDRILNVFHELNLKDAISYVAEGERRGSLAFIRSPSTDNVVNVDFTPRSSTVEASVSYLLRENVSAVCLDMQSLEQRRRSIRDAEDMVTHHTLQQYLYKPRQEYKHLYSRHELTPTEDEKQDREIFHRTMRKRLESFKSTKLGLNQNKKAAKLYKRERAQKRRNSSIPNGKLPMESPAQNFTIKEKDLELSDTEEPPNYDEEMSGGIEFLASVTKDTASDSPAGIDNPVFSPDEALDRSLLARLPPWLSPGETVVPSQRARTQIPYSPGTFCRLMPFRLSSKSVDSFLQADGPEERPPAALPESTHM
Description: NHE3 activity assay (intracellular pH recovery, BCECF-AM) in human NHE3 over-expressing NHD C8 cells. The class given is cell-based. From the text: Sodium hydrogen exchanger activity specific to NHE3 was achieved by overexpressing human NHE3 in an endogenously NHE-deficient cell line generated by chemical-induced mutagenesis. After the mutagenesis, NHE-deficient cells were selected by loading lithium into the cells and then exposing them to an acidic extracellular environment. Under these conditions, NHE exchanges intracellular lithium for extracellular protons, thus only NHE-deficient cells can avoid a toxic intracellular acidosis and survive. Dede cells (ATCC ccl-39), grown to 50% confluence in McCoy’s 5A medium (GE Healthcare) with 10% FBS and antibiotic/antimycotic solution (GE Healthcare) in a T75 flask, were treated with 500 μg/mL of EMS (ethyl methanesulfonate, Sigma-Aldrich) in medium for 20 hours for mutagenesis and washed twice with phosphate buffered saline (PBS). The cells were then trypsinized, plated in two T175 flasks and cultured in fresh medium without EMS for 2 days. […] The intracellular pH change is then measured by an intracellular pH-sensitive dye, 2’,7’-Bis-(2-carboxyethyl)-5(and-6)-carboxyfluorescein, acetoxymethyl ester (BCECF-AM, ThermoFisher Scientific) upon reintroduction of sodium. […] The plate was immediately read for fluorescence at the excitation wavelength of 505 nm and the emission wavelength of 550 nm using a kinetic method by Molecular Device, SpectraMax i3. […]

As usually defined, the IC50 is the concentration that gives 50% inhibition. Low values mean higher potency, high ones lower potency. On to `CN1Cc2c(Cl)cc(Cl)cc2[C@H](c2cccc(S(=O)(=O)NCCOCCOCCN/C(=N\C(N)=O)NCCCCN/C(=N/C(N)=O)NCCOCCOCCNS(=O)(=O)c3cccc([C@@H]4CN(C)Cc5c(Cl)cc(Cl)cc54)c3)c2)C1.Cl.Cl` [LY3304000, (Z)-[[4-[[(Z)-N’-carbamoyl-N-[2-[2-[2-[[3-[(4S)-6,8-dichloro-2-methyl-3,4-dihydro-1H-isoquinolin-4-yl]phenyl]sulfonylamino]ethoxy]ethoxy]ethyl]carbamimidoyl]amino]butylamino]-[2-[2-[2-[[3-[(4S)-6,8-dichloro-2-methyl-3,4-dihydro-1H-isoquinolin-4-yl]phenyl]sulfonylamino]ethoxy]ethoxy]ethylamino]methylene]urea dihydrochloride], for which the “slope of the concentration-response curve” value (4-parameter fit, representative curve) came to 0.8. Moreover, the IC50 (geometric mean of individual IC50, n=7) is 5.8 nM and 5.76 nM.
